“Also recorded” adds a separate entry of the source. Where two headings read alike, the source gives them in different places.
Assays:
TZM-bl cells [1] = test: MTT cell proliferation; conditions: for TI (toxicity index; ratio of cytotoxicity to neutralization IC50 values): MTT assay; for cytotoxic at concentrations above: cellular cytotoxicity assays; for cellular cytotoxicity (in words): MTT cell proliferation assay
[2] = test system: HIV-1 BaL virions (gp120); test: HIV-1 virion capture assay with gp120-specific mAbs; format: binding; conditions: peptide 50 μM; sCD4–2D-treated HIV-1 BaL; captured p24 Gag by AlphaLISA
HIV-1 HxB2 (X4) = conditions: read-out: IC50 HxB2 (X4); cited from earlier work
[3] = test system: HIV-1 YU2 pseudotyped viral particles; conditions: read-out: IC50 YU2 (R5); TZM-bl cells; cited from earlier work
[4] = test system: vesicular stomatitis virus; format: cell-based
TZM-bl cells [5] = conditions: effects on host cell line TZM-bl; cited from earlier work
HIV-1 BaL26 (R5) = conditions: read-out: IC50 BaL26 (R5); TZM-bl cells; cited from earlier work
[6] = test system: YU2 pseudotyped HIV virus; conditions: combination 2C:Nt, cited from earlier work
HIV-1 NL4–3 (X4) = conditions: read-out: IC50 NL4–3 (X4); cited from earlier work
[7] = test system: amphotropic pseudotyped murine leukemia virus; test: Neutralization of amphotropic pseudotyped murine leukemia virus; format: cell-based
[8] = Peptide stability in PBS and cell growth medium with serum; format: in vitro ADME; conditions: PBS and cell growth medium (DMEM) complemented with fetal bovine serum, 37 °C, 5% CO2, 24 h monitoring; LC–MS
[9] = test system: HIV-1 YU2 pseudotyped viral particles; conditions: neutralization assay

Substance: Ac-CSSYFPFSQYQFWK-NH2 [18-2]
- TI (toxicity index; ratio of cytotoxicity to neutralization IC50 values) (TZM-bl cells [1]): >63 to 125 µM
- cytotoxic at concentrations above (TZM-bl cells [1]): above 65 μM

Substance: Ac-CSSHFPYSQYQFWK-NH2 [2C, reference compound]
- inhibition of virion capture by mAb 19b [2]: effectively blocked virus capture
- inhibition of virion capture by mAb 268-D [2]: effectively blocked virus capture
- inhibition of virion capture by mAb 48d [2]: effectively blocked virus capture; also recorded: to a lesser extent
- inhibition of virion capture by mAb B4e8 (V3 tip) [2]: neither 2C nor 40-2 blocked capture; also recorded: neither inhibited virion capture
- inhibition of virion capture by mAb D19 (V3 tip) [2]: neither 2C nor 40-2 blocked capture; also recorded: neither inhibited virion capture
- IC50 (HIV-1 HxB2 (X4)): 54 µM
- IC50 [3]: 28 ± 7 µM
- activity toward vesicular stomatitis virus (in words) [4]: inactive
- LC50 (TZM-bl cells [5]): 190 µM
- IC50 (HIV-1 BaL26 (R5)): 65 ± 3 µM
- dose reduction index (DRI) ([6]; ratio 1:1): 2.1 ± 0.4
- dose reduction index (DRI) ([6]; ratio 1:2): 2.6 ± 0.5
- dose reduction index (DRI) ([6]; ratio 1:5): 4.9 ± 1.0
- IC50 (HIV-1 NL4–3 (X4)): 53 ± 2 µM
- activity toward amphotropic pseudotyped murine leukemia virus (in words) [7]: inactive
- glutathione (GST) adducts detected starting around [8]: around 30 min

Substance: Ac-SSHFPYSQYQFWK-NH2 [12-1]
- TI (toxicity index; ratio of cytotoxicity to neutralization IC50 values) (TZM-bl cells [1]): >500 to 1000 µM

Substance: Ac-CSSYFPWSQYQWWK-NH2 [30-2]
- TI (toxicity index; ratio of cytotoxicity to neutralization IC50 values) (TZM-bl cells [1]): >500 µM
- cellular cytotoxicity (in words) (TZM-bl cells [1]): nontoxic at relevant concentrations
- LC50 (TZM-bl cells [1]; effects on host cell line TZM-bl, standard deviations averaged 20%, Non-toxic = nontoxic at 500 μM): Non-toxic^f

Substance: Ac-CSSHFPFSQVQFWK-NH2 [16-6]
- TI (toxicity index; ratio of cytotoxicity to neutralization IC50 values) (TZM-bl cells [1]): >5 µM
- cellular cytotoxicity (in words) (TZM-bl cells [1]): cytotoxic

Substance: Ac-CSSHFPFSQFQFWK-NH2 [16-5]
- TI (toxicity index; ratio of cytotoxicity to neutralization IC50 values) (TZM-bl cells [1]): >50 µM
- cellular cytotoxicity (in words) (TZM-bl cells [1]): cytotoxic

Substance: Ac-SSHFPWSQYQFWK-NH2 [12-4]
- activity against R5-tropic strain YU2 (in words) [9]: modest gains in potency
- TI (toxicity index; ratio of cytotoxicity to neutralization IC50 values) (TZM-bl cells [1]): >500 µM

Substance: Ac-SSHFPFSQYQFWK-NH2 [12-2]
- activity against R5-tropic strain YU2 (in words) [9]: modest gains in potency
- TI (toxicity index; ratio of cytotoxicity to neutralization IC50 values) (TZM-bl cells [1]): >500 µM

Substance: Ac-YSSYFPFSQYQWWK-NH2 [40-2]
- inhibition of virion capture by mAb 19b [2]: effectively blocked virus capture
- inhibition of virion capture by mAb 268-D [2]: effectively blocked virus capture
- inhibition of virion capture by mAb 48d [2]: effectively blocked virus capture; also recorded: to a lesser extent
- inhibition of virion capture by mAb B4e8 (V3 tip) [2]: neither 2C nor 40-2 blocked capture; also recorded: neither inhibited virion capture
- inhibition of virion capture by mAb D19 (V3 tip) [2]: neither 2C nor 40-2 blocked capture; also recorded: neither inhibited virion capture
- TI (toxicity index; ratio of cytotoxicity to neutralization IC50 values) (TZM-bl cells [1]): >250 µM
- cellular cytotoxicity (in words) (TZM-bl cells [1]): nontoxic at relevant concentrations
- glutathione (GST) adduct formation (in words) [8]: never detected GST adducts

Substance: Ac-SSHFPWSQVQFWK-NH2 [14-6]
- activity against R5-tropic strain YU2 (in words) [9]: low activity
- TI (toxicity index; ratio of cytotoxicity to neutralization IC50 values) (TZM-bl cells [1]): >200 µM

Substance: Ac-CSSYFPFSQYQWWK-NH2 [20-2]
- TI (toxicity index; ratio of cytotoxicity to neutralization IC50 values) (TZM-bl cells [1]): >250 µM
- cellular cytotoxicity (in words) (TZM-bl cells [1]): nontoxic at relevant concentrations
- glutathione (GST) adducts detected starting around [8]: around 30 min

Substance: Ac-SSHFPFSQVQFWK-NH2 [14-5]
- activity against R5-tropic strain YU2 (in words) [9]: low activity
- TI (toxicity index; ratio of cytotoxicity to neutralization IC50 values) (TZM-bl cells [1]): >500 µM

Substance: Ac-SSHFPWSQRQFWK-NH2 [14-2]
- TI (toxicity index; ratio of cytotoxicity to neutralization IC50 values) (TZM-bl cells [1]): >500 to 1000 µM

Substance: Ac-CSSYYPFSQYQWWK-NH2 [20-5]
- cellular cytotoxicity (in words) (TZM-bl cells [1]): nontoxic at relevant concentrations

Substance: Ac-SSHFPVSQYQFWK-NH2 [12-3]
- activity against R5-tropic strain YU2 (in words) [9]: modest gains in potency
- TI (toxicity index; ratio of cytotoxicity to neutralization IC50 values) (TZM-bl cells [1]): >5 µM
- cellular cytotoxicity (in words) (TZM-bl cells [1]): cytotoxic

Substance: Ac-CSSHFPFSQYQFWK-NH2 [16-2]
- TI (toxicity index; ratio of cytotoxicity to neutralization IC50 values) (TZM-bl cells [1]): >63 to 250 µM
- cytotoxic at concentrations above (TZM-bl cells [1]): above 65 μM

Substance: Ac-CSSHFPWSQVQFWK-NH2 [16-7]
- TI (toxicity index; ratio of cytotoxicity to neutralization IC50 values) (TZM-bl cells [1]): >75 µM
- cellular cytotoxicity (in words) (TZM-bl cells [1]): cytotoxic

Substance: Ac-CSSHFPYSQFQFWK-NH2 [16-4]
- TI (toxicity index; ratio of cytotoxicity to neutralization IC50 values) (TZM-bl cells [1]): >100 µM
- cellular cytotoxicity (in words) (TZM-bl cells [1]): cytotoxic

Substance: Ac-SSHFPFSQRQFWK-NH2 [14-1]
- TI (toxicity index; ratio of cytotoxicity to neutralization IC50 values) (TZM-bl cells [1]): >500 to 1000 µM
